How the values were obtained:
COX-1 = molecular target: T1, COX-1 (Ovis aries, UniProt P05979); assay: COX inhibitory enzyme immunoassay (COX-1); format: biochemical
T1 construct: purchased Cayman Chemical Co. item no; 560131
T1 sequence (P05979 25-600): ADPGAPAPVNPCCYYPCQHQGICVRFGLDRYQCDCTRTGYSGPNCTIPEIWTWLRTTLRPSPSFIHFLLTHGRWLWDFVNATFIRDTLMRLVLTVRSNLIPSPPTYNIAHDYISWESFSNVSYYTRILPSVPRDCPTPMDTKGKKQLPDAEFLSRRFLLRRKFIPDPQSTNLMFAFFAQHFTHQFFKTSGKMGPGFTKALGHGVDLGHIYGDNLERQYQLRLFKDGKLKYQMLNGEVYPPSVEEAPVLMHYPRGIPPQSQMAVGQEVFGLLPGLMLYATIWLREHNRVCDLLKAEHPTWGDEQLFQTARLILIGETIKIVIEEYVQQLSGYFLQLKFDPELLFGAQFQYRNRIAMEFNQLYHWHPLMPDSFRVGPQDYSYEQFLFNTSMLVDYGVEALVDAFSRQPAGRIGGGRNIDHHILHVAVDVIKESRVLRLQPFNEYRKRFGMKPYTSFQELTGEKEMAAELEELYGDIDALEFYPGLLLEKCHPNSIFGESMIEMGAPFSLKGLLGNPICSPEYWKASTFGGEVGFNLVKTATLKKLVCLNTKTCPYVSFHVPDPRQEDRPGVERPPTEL
Procedure: All the compounds of Fig. 9 were screened for COX-1/2 inhibitory activity in triplicate at 10^–4–10^–8 M concentration by performing enzyme immunoassays. The activity of the compounds was quantified in terms of amount of prostaglandins produced by the enzymes in the presence of different concentrations of the compound.
For studying the COX-1, COX-2 inhibitory activities of the compounds, various reagents were prepared as per the protocol of the assays. The compounds were screened in triplicate at 10^–4–10^–8 M concentration using the procedure as described in the previous report.

Acute toxicity studies = format: in vivo
Procedure: Acute toxicity studies of 1 were carried out at 3 dose levels of 50 mg Kg^−1, 300 mg Kg^−1 and 2000 mg Kg^−1 by periodic monitoring for the first 24 h and daily monitoring for 14 days[56]. […] A few jumping movements were also observed. However, all these behaviours subsided after 60 min. […] Therefore, complying with the design and the results of in vitro studies, the in vivo experiments were gestured with the emergence of a new category of anti-inflammatory agents.
Acute Toxicity Studies[56]. Four groups of animals with three animals per group were taken. The first group was administered the vehicle and served as the control group, the second, third and the fourth groups were treated with 1 at doses of 50 mg Kg^−1, 300 mg Kg^−1 and 2000 mg Kg^−1, respectively. All the treatments were administered after 4 h of fasting. Thereafter, the animals were observed continuously for the first four hours and periodically for 24 h. After 14 days, one animal each in control and highest dose of 1 (2000 mg Kg^−1) was sacrificed and histological studies were conducted using H and E staining.
[56] OECD Guideline for testing of chemicals, 2001. Guideline 423: acute oral toxicity- acute toxic class method, 2001.

## O=C1NC(=O)C(=Cc2cn(CCCCCCn3c4ccccc4c(=O)c4ccccc43)c3ccccc23)C(=O)N1 [Compound 1]
COX-1
  IC50: 60 µM
Acute toxicity studies; 2000 mg Kg^−1, after 14 days, H and E staining, a few areas of congestion in myocardium and kidney
  histological examination of liver, kidney and myocardium: grossly unremarkable
Acute toxicity studies; 50, 300 and 2000 mg Kg^−1, oral, 14 days of observation
  mortality in acute toxicity study: No mortality
Acute toxicity studies; first 60 min after oral administration, subsided after 60 min
  behavioural observations in acute toxicity study: excessive licking, sniffing, grooming and restless movements
